Measurements as given in ChEMBL document CHEMBL3137667, “[Drug-induced liver injury; fourteenth updated edition of the bibliographic database of liver injuries and related drugs]” (Gastroenterol Clin Biol, 2004).

Key:
[1] = Highest frequency of moderate liver toxicity observed during clinical trials, expressed as a percentage. [column '% BIOL' in source]; details: human
[2] = Highest frequency of acute liver toxicity observed during clinical trials, expressed as a percentage. [column '% AIGUE' in source]; details: human
[3] = human, serum
[4] = human, serum; remark: listed apart in the source
[5] = human
[6] = human; remark: listed apart in the source
[7] = human; remark: listed apart in the source
[8] = human, serum, 4383 h
[9] = human; remark: listed apart in the source
[10] = human; remark: listed apart in the source
[11] = human; remark: listed apart in the source
[12] = human; remark: listed apart in the source
[13] = human; remark: listed apart in the source
[14] = human; remark: listed apart in the source
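Wherever Hepatotoxicity (association with vascular disease) is given: count of indexed literature references reporting vascular liver injury in humans, e.g. peliosis hepatitis, hepatic veno-occlusive disease or Budd-Chiari syndrome.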
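Wherever Hepatotoxicity (benign tumour) is given: value is a count of indexed literature references citing a benign tumour confirmed by histopathology.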
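Wherever Hepatotoxicity (choleostasis) is given: human cholestatic liver injury, shown by histopathology or by peak ALT or AST elevation over alkaline phosphatase ratio below 2, value counts indexed literature reports.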
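Wherever Hepatotoxicity (chronic liver disease) is given: chronic liver injury confirmed by histopathology or persistently raised serum aminotransferase activity beyond 6 months, value given as the count of indexed literature references.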
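Wherever Hepatotoxicity (cirrhosis) is given: value is a count of indexed literature references reporting cirrhosis confirmed by histopathology.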
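Wherever Hepatotoxicity (cytolytic) is given: human cytolytic liver injury, shown by histopathology or by a ratio above 5 of peak ALT or AST elevation to alkaline phosphatase elevation, value counts indexed references.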
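Wherever Hepatotoxicity (granulomatous hepatitis) is given: value is a count of indexed literature references reporting granulomatous liver disease confirmed by histopathology.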
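Wherever Hepatotoxicity (malignant tumour) is given: malignant tumour confirmed by histopathology, value gives the count of indexed literature references reporting it.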
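Wherever Hepatotoxicity (severe hepatitis) is given: human clinical data: severe hepatitis, meaning potentially life-threatening liver failure or clinically observed cases, the value counts how many indexed literature references report it.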
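Wherever Hepatotoxicity (steatosis) is given: steatosis confirmed by histopathology, value is the count of indexed references.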

| Structure (SMILES) | Hepatotoxicity (moderate) [1] | Hepatotoxicity (acute) [2] | Hepatotoxicity (moderate) [3] | Hepatotoxicity (acute) [4] | Hepatotoxicity (cytolytic) [5] | Hepatotoxicity (choleostasis) [6] | Hepatotoxicity (severe hepatitis) [7] | Hepatotoxicity (chronic liver disease) [8] | Hepatotoxicity (cirrhosis) [9] | Hepatotoxicity (granulomatous hepatitis) [10] | Hepatotoxicity (association with vascular disease) [11] | Hepatotoxicity (steatosis) [12] | Hepatotoxicity (malignant tumour) [13] | Hepatotoxicity (benign tumour) [14] |
| --- | --- | --- | --- | --- | --- | --- | --- | --- | --- | --- | --- | --- | --- | --- |
| C[C@]1(O)CC[C@H]2[C@@H]3CCC4=CC(=O)CC[C@@H]4[C@H]3CC[C@@]21C [NORMETHANDRONE] | 0% | 0% | 0 | 2 | 0 | 1 | 0 | 0 | 0 | 0 | 0 | 0 | 0 | 0 |
| COC(=O)C[C@](O)(CCCC(C)(C)O)C(=O)O[C@@H]1C(OC)=C[C@]23CCCN2CCc2cc4c(cc2[C@H]13)OCO4 [OMACETAXINE MEPESUCCINATE] | 15% | 0% | 3 | 0 | 0 | 0 | 0 | 0 | 0 | 0 | 0 | 0 | 0 | 0 |
| CCOC(=O)C1=C[C@@H](OC(CC)CC)[C@H](NC(C)=O)[C@@H](N)C1 [OSELTAMIVIR] | 0% | 0% | 0 | 1 | 0 | 0 | 0 | 0 | 0 | 0 | 0 | 0 | 0 | 0 |
| O=C(O)C(=O)O [OXALIC ACID] | 0% | 0% | 1 | 0 | 0 | 0 | 0 | 0 | 0 | 0 | 0 | 0 | 0 | 0 |
| CC(C)NCC1CCc2cc(CO)c([N+](=O)[O-])cc2N1 (centres undefined) [OXAMNIQUINE] | 0% | 0% | 3 | 0 | 0 | 0 | 0 | 0 | 0 | 0 | 0 | 0 | 0 | 0 |
| COc1cc2[nH]c(C)c(CCN3CCN(c4ccccc4)CC3)c2cc1OC [OXYPERTINE] | 0% | 0% | 1 | 0 | 0 | 0 | 0 | 0 | 0 | 0 | 0 | 0 | 0 | 0 |
